Reference: ChEMBL document CHEMBL1201862, “PubChem BioAssay data set” (2004)
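Tested at 5 concentrations; 48 h exposure; 96-well plates; endpoints linearly interpolated, else capped at highest concentration. GI50 = concentration required for 50% inhibition of growth.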 Calls of active or inactive are those of the source. Cut-off read from the data, not from the text of the source: active = GI50 up to about 1.1 µM and inactive = higher.

Assays:
Test in all cases: NCI anticancer screen, dose series, 48 h
[1] = tested on: NCI-H460
[2] = tested on: HCT-15
[3] = tested on: COLO 205
[4] = tested on: A549
[5] = tested on: NCI-H522
[6] = tested on: NCI-H23
[7] = tested on: HOP-62
[8] = tested on: OVCAR-5
[9] = tested on: SF-268
[10] = tested on: SF-295
[11] = tested on: UACC-257
[12] = tested on: TK-10
[13] = tested on: DLD-1
[14] = tested on: UO-31
[15] = tested on: MOLT-4
[16] = tested on: HCT-116
[17] = tested on: Malme-3M
[18] = tested on: OVCAR-3
[19] = tested on: MCF7
[20] = tested on: 786-0

Row | SMILES | GI50 [1] | GI50 [2] [µM] | GI50 [3] | GI50 [4] | GI50 [5] | GI50 [6] | GI50 [7] | GI50 [8] | GI50 [9] | GI50 [10] | GI50 [11] | GI50 [12] | GI50 [13] | GI50 [14] | GI50 [15] | GI50 [16] | GI50 [17] | GI50 [18] | GI50 [19] | GI50 [20]
1 | O=C(Nc1ccc(F)cc1)C(=O)C(C(=O)c1ccccc1F)C1OC(=O)c2ccccc21 (configuration not stated) | 47 µM (inactive) | 23.6 | 48.1 µM (inactive) | > 100 µM (inactive) | 15 µM (inactive) | > 100 µM (inactive) | > 100 µM (inactive) | > 100 µM (inactive) | 50 µM (inactive) | 68.5 µM (inactive) | > 100 µM (inactive) | > 100 µM (inactive) | 76.4 µM (inactive) | 52.6 µM (inactive) | 14.9 µM (inactive) | 45.8 µM (inactive) |  |  |  | 
2 | CCOCc1cc(=O)c2c(O)cc3c(c2o1)CCC(C)(C)O3 | > 100 µM (inactive) | > 100 | > 100 µM (inactive) |  | > 100 µM (inactive) | > 100 µM (inactive) |  |  | > 100 µM (inactive) | > 100 µM (inactive) |  | > 100 µM (inactive) | > 100 µM (inactive) | > 100 µM (inactive) | > 100 µM (inactive) |  | > 100 µM (inactive) | > 100 µM (inactive) |  | 
3 | COc1cc(S(=O)(=O)Nc2ccc(-c3csc(N4C(=O)C(C)SC4c4cccc(Oc5ccccc5)c4)n3)cc2)ccc1Cl (configuration not stated) |  | 36.9 | 27.7 µM (inactive) | > 100 µM (inactive) | 29.8 µM (inactive) | 33 µM (inactive) | 50.7 µM (inactive) | 83.2 µM (inactive) | 26.7 µM (inactive) | 46.2 µM (inactive) |  |  |  | 64.6 µM (inactive) | 37.8 µM (inactive) | 34.8 µM (inactive) | > 100 µM (inactive) | 43.6 µM (inactive) | 24.1 µM (inactive) | 
4 | O=[S@@]1Nc2ccc(Br)cc2S1 |  |  |  | 4.56 µM (inactive) | 0.887 µM (active) | 25.2 µM (inactive) |  |  | 2.44 µM (inactive) | 40 µM (inactive) | > 100 µM (inactive) | 2.79 µM (inactive) | 6.08 µM (inactive) | 1.05 µM (active) | 6.47 µM (inactive) | 4.66 µM (inactive) | 97.3 µM (inactive) | 31.2 µM (inactive) |  | > 100 µM (inactive)
5 | CCN1CCCCC(=N\O)/C(=N/O)CCCC1 | > 100 µM (inactive) | > 100 | > 100 µM (inactive) | > 100 µM (inactive) | > 100 µM (inactive) | > 100 µM (inactive) | > 100 µM (inactive) | > 100 µM (inactive) | > 100 µM (inactive) | > 100 µM (inactive) | > 100 µM (inactive) | > 100 µM (inactive) |  | > 100 µM (inactive) | > 100 µM (inactive) | > 100 µM (inactive) | > 100 µM (inactive) | > 100 µM (inactive) | > 100 µM (inactive) | > 100 µM (inactive)
6 | CCOC(=O)c1cccc(NC(=O)CBr)c1 | 0.927 µM (active) | 1.28 | 1.72 µM (inactive) | 2.09 µM (inactive) | 0.0164 µM (active) | 0.942 µM (active) | 1.73 µM (inactive) | 1.75 µM (inactive) |  | 4.36 µM (inactive) | 1.82 µM (inactive) | 1.67 µM (inactive) |  | 0.776 µM (active) | 0.223 µM (active) | 0.664 µM (active) | 1.91 µM (inactive) | 1.39 µM (inactive) | 1.19 µM (inactive) | 0.22 µM (active)
7 | CCOC(=O)C(Cc1c(-c2[nH]c3ccccc3c2CC(NC(=O)CNC(C)=O)C(=O)OCC)[nH]c2ccccc12)NC(=O)CNC(C)=O (configuration not stated) | > 100 µM (inactive) | > 100 | 18.6 µM (inactive) | > 100 µM (inactive) | 27.9 µM (inactive) | > 100 µM (inactive) | > 100 µM (inactive) | > 100 µM (inactive) | 45.5 µM (inactive) | > 100 µM (inactive) | 27.4 µM (inactive) | > 100 µM (inactive) |  | 77.4 µM (inactive) | 53.2 µM (inactive) | > 100 µM (inactive) | 20 µM (inactive) | 42.3 µM (inactive) |  | 
8 | CCC(=O)c1c(NOC2OCC(OC(C)=O)C(OC(C)=O)C2OC(C)=O)nc(OC)n(C)c1=O (configuration not stated) | > 100 µM (inactive) | > 100 | > 100 µM (inactive) | > 100 µM (inactive) |  | > 100 µM (inactive) | > 100 µM (inactive) | > 100 µM (inactive) | > 100 µM (inactive) | > 100 µM (inactive) | > 100 µM (inactive) | > 100 µM (inactive) | > 100 µM (inactive) | > 100 µM (inactive) | > 100 µM (inactive) | > 100 µM (inactive) | > 100 µM (inactive) | > 100 µM (inactive) |  | > 100 µM (inactive)
9 | Clc1ccc(N/N=C(\c2ccccc2)c2ccccn2)nc1 |  | < 0.0183 | < 0.01 µM (active) | 0.387 µM (active) | < 0.01 µM (active) | 0.0526 µM (active) | 1.12 µM (active) | 0.895 µM (active) | 0.0258 µM (active) | 0.323 µM (active) | < 0.0158 µM (active) |  |  | 0.0494 µM (active) | < 0.01 µM (active) | < 0.0148 µM (active) | < 0.01 µM (active) | < 0.0121 µM (active) | < 0.01 µM (active) | 0.0367 µM (active)
10 | CC(=O)N(C(=O)CC(=O)N1N=C(C)C(/N=N/c2cccc([N+](=O)[O-])c2)C1=O)c1ccc(Cl)cc1 (configuration not stated) |  | > 10 | > 10 µM (inactive) | > 10 µM (inactive) | > 10 µM (inactive) | 7.03 µM (inactive) | > 10 µM (inactive) | > 10 µM (inactive) | > 10 µM (inactive) | > 10 µM (inactive) | > 10 µM (inactive) | > 10 µM (inactive) |  |  |  | > 10 µM (inactive) | > 10 µM (inactive) | > 10 µM (inactive) | > 10 µM (inactive) | > 10 µM (inactive)
11 | COc1cc(/C=C(\C)[N+](=O)[O-])cc(OC)c1 | 20.2 µM (inactive) | 12.6 | 8.05 µM (inactive) | 28.3 µM (inactive) | 1.87 µM (inactive) | 19.1 µM (inactive) | 19.2 µM (inactive) | 20.1 µM (inactive) | 19.3 µM (inactive) | 25.8 µM (inactive) | 15.5 µM (inactive) | 11.8 µM (inactive) |  | 15.6 µM (inactive) | 2.57 µM (inactive) | 16.1 µM (inactive) | 14.8 µM (inactive) | 17.8 µM (inactive) | 6.73 µM (inactive) | 4.59 µM (inactive)
12 | C[C@H](C(=O)O)C(=O)NC(=O)N(Cc1ccccc1)N=O | > 100 µM (inactive) | > 100 | > 100 µM (inactive) | > 100 µM (inactive) |  |  | > 100 µM (inactive) | > 100 µM (inactive) | > 100 µM (inactive) | > 100 µM (inactive) | > 100 µM (inactive) | > 100 µM (inactive) | > 100 µM (inactive) | > 100 µM (inactive) | > 100 µM (inactive) | > 100 µM (inactive) | > 100 µM (inactive) | > 100 µM (inactive) |  | > 100 µM (inactive)
13 | CN(C(=O)C12C3C4C1C1C2C3C41C(=O)C(C)(C)C)C(C)(C)C (configuration not stated) |  |  | > 100 µM (inactive) | > 100 µM (inactive) | 22 µM (inactive) | > 100 µM (inactive) | > 100 µM (inactive) | > 100 µM (inactive) | > 100 µM (inactive) | > 100 µM (inactive) | > 100 µM (inactive) | > 100 µM (inactive) | > 100 µM (inactive) | > 100 µM (inactive) | > 100 µM (inactive) | > 100 µM (inactive) | > 100 µM (inactive) | > 100 µM (inactive) |  | > 100 µM (inactive)
14 | O=S(O)c1cc(Cl)cc(Cl)c1O | > 100 µM (inactive) |  |  |  | > 100 µM (inactive) | > 100 µM (inactive) | > 100 µM (inactive) | > 100 µM (inactive) | > 100 µM (inactive) |  | > 100 µM (inactive) | > 100 µM (inactive) | > 100 µM (inactive) | > 100 µM (inactive) | > 100 µM (inactive) | > 100 µM (inactive) | > 100 µM (inactive) | > 100 µM (inactive) |  | 
15 | c1ccc(Nc2nnc(CCCCCCCCc3nnc(Nc4ccccc4)o3)o2)cc1 | > 100 µM (inactive) | > 100 | > 100 µM (inactive) | > 100 µM (inactive) | > 100 µM (inactive) | > 100 µM (inactive) | > 100 µM (inactive) | > 100 µM (inactive) | > 100 µM (inactive) | > 100 µM (inactive) | > 100 µM (inactive) | > 100 µM (inactive) |  | > 100 µM (inactive) | > 100 µM (inactive) | > 100 µM (inactive) | > 100 µM (inactive) | > 100 µM (inactive) | > 100 µM (inactive) | > 100 µM (inactive)
16 | NC(CCOCCP(=O)(O)CCOCCC(N)C(=O)O)C(=O)O (configuration not stated) | > 100 µM (inactive) | > 100 | > 100 µM (inactive) | > 100 µM (inactive) | > 100 µM (inactive) | > 100 µM (inactive) |  | > 100 µM (inactive) | > 100 µM (inactive) | > 100 µM (inactive) | > 100 µM (inactive) | > 100 µM (inactive) |  | > 100 µM (inactive) | > 100 µM (inactive) | > 100 µM (inactive) |  | > 100 µM (inactive) | > 100 µM (inactive) | 
17 | COc1ccc2cc3[n+](cc2c1OC)CCc1cc2c(cc1-3)OCO2 [BERBERINE CHLORIDE] | 12.2 µM (inactive) |  |  |  |  | 7.35 µM (inactive) |  | 58.3 µM (inactive) | 5.2 µM (inactive) |  |  | > 100 µM (inactive) |  |  |  |  | 6.68 µM (inactive) |  |  | > 49.4 µM (inactive)
